According to US20240287138A1, “CYCLIC PEPTIDES FOR INHIBITING TNF RECEPTOR 1 ACTIVITY” (Merck Sharp & Dohme LLC, priority 2023, published 2024):
Numbered stars: 1 amine (or outer) side, 2 acyl side, 3 side chain; on linkers, the order of the positions; unused ones are H or OH. Bridge positions count the residues as written; N and C are the ends. Square brackets hold non-standard residues; d marks the D form. Peptide text beside a SMILES is read from it. * marks the point of attachment. Trp(βS-Me,7-OMe) = COc1cccc2c([C@H](C)[C@H](N)C(=O)O)c[nH]c12; Phe(4-SO2NH2) = N[C@@H](Cc1ccc(S(N)(=O)=O)cc1)C(=O)O; Phe(2-F,4-COOH) = N[C@@H](Cc1ccc(C(=O)O)cc1F)C(=O)O; Trp(7-CN) = N#Cc1cccc2c(C[C@H](N)C(=O)O)c[nH]c12; Trp(7-Cl) = N[C@@H](Cc1c[nH]c2c(Cl)cccc12)C(=O)O; Phe(4-CONH2) = NC(=O)c1ccc(C[C@H](N)C(=O)O)cc1; Phe(4-COOH) = N[C@@H](Cc1ccc(C(=O)O)cc1)C(=O)O; Trp(7-aza) = N[C@@H](Cc1c[nH]c2ncccc12)C(=O)O; X3 = C[C@H](c1ccncc1)[C@H](N[*:1])C(=O)[*:2]; dPro(4S-NH2) = N[C@@H]1CN[C@@H](C(=O)O)C1; Pip(5R-OH) = O=C(O)[C@@H]1CC[C@@H](O)CN1; X1 = O=C([C@@H]1CC[C@H](N[*:1])C1)[*:2]; Gly(Nα-CH2CH2CONH2) = NC(=O)CCNCC(=O)O; Pip(4-aza) = O=C(O)[C@@H]1CNCCN1; 4Pal = N[C@@H](Cc1ccncc1)C(=O)O; NMeE = CN[C@@H](CCC(=O)O)C(=O)O; dHyp = O=C(O)[C@H]1C[C@H](O)CN1; Ahp(2) = CCCCC[C@H](N)C(=O)O; αMeS = C[C@](N)(CO)C(=O)O; Carboxymethyl = O=C(O)C*; Nle = CCCC[C@H](N)C(=O)O; Sar = CNCC(=O)O

Legend:
[1] = biological target: T1, human soluble TNFR1 (sTNFR1) (Homo sapiens, UniProt P19438); assay: Human sTNFR1-peptide displacement assay (LanthaScreen Eu TR-FRET binding assay)
T1 construct: made in house; host or cells: Sf21 (baculovirus)
T1 sequence (P19438 with tags, fused parts or gaps): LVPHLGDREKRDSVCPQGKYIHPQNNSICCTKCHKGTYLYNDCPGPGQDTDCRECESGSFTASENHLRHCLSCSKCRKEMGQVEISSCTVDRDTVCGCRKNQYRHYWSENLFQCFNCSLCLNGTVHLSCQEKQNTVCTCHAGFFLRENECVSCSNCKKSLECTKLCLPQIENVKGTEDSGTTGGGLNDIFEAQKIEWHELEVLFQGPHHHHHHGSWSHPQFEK
Procedure, shortened: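 Readout is the 665/615 nm TR-FRET ratio (Eu anti-His donor, streptavidin-Alexa647 acceptor), normalized to DMSO and saturating displacer, fit by Morrison-based five-parameter logistic for Kd^app. His-tagged sTNFR1 (1-211) prebound to 100 nM biotinylated peptide SEQ ID NO.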

[2] = biological target: T2, human TNFR1 extracellular domain (ECD) protein (Homo sapiens, UniProt P19438); assay: SPR binding affinity to captured human TNFR1 ECD
T2 construct: HRV 3C protease cleavage site (C); 6His (C, cleaved yes); made in house; host or cells: Sf21 insect cells (baculovirus), secreted
T2 sequence (P19438 30-211): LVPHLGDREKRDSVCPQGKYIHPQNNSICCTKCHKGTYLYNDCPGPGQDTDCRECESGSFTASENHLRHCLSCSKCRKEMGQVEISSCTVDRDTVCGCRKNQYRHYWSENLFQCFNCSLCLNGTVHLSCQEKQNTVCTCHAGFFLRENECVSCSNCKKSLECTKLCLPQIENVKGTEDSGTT
Procedure, shortened: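 Insect-cell human receptor ECDs, enzymatically biotinylated, immobilized via streptavidin capture chip. Peptide binding and dissociation measured in RU in pH 7.4 HEPES buffer containing 2% DMSO; chip regenerated per analyte. Rate constants give affinity.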

SMILES: CCCC[C@@H]1NC(=O)[C@@H]2CC[C@@H](C2)NC(=O)[C@H]([C@@H](C)c2c[nH]c3c(OC)cccc23)NC(=O)CN(C)C(=O)[C@H](Cc2ccc(C(=O)O)cc2)NC(=O)[C@H](Cc2ccc(C(N)=O)cc2)NC(=O)[C@](C)(CO)NC(=O)[C@H](Cc2c[nH]c3c(C#N)cccc23)NC(=O)[C@H](Cc2ccc(C(=O)O)cc2)NC(=O)[C@H](CC(N)=O)NC(=O)CN(CCC(N)=O)C(=O)[C@H](Cc2c[nH]c3ccccc23)NC(=O)[C@@H]2CC[C@@H](O)CN2C(=O)[C@H](Cc2ccncc2)NC1=O [SEQ ID NO. 130] (cyclo([4Pal][Pip(5R-OH)]W[Gly(Nα-CH2CH2CONH2)]N[Phe(4-COOH)][Trp(7-CN)][αMeS][Phe(4-CONH2)][Phe(4-COOH)][Sar][Trp(βS-Me,7-OMe)][X1][Nle]))
- Kd [1]: 0.01 nM
- Kd [2]: 0.06 nM

SMILES: CCCC[C@@H]1NC(=O)[C@@H]2CC[C@@H](C2)NC(=O)[C@H]([C@@H](C)c2c[nH]c3c(OC)cccc23)NC(=O)CN(C)C(=O)[C@H](Cc2ccc(C(=O)O)cc2F)NC(=O)[C@H](Cc2ccc(S(N)(=O)=O)cc2)NC(=O)[C@](C)(CO)NC(=O)[C@H](Cc2c[nH]c3c(C#N)cccc23)NC(=O)[C@H](Cc2ccc(C(=O)O)cc2F)NC(=O)[C@H](CC(N)=O)NC(=O)[C@H]2C[C@H](OCC(=O)O)CN2C(=O)[C@H](Cc2c[nH]c3ncccc23)NC(=O)[C@@H]2CC[C@@H](O)CN2C(=O)[C@H](Cc2ccncc2)NC1=O [SEQ ID NO. 134] (cyclo([4Pal][Pip(5R-OH)][Trp(7-aza)][dHyp](Carboxymethyl)N[Phe(2-F,4-COOH)][Trp(7-CN)][αMeS][Phe(4-SO2NH2)][Phe(2-F,4-COOH)][Sar][Trp(βS-Me,7-OMe)][X1][Nle]))
- Kd [1]: 0.06 nM
- Kd [2]: 0.05 nM

SMILES: CCCCC[C@@H]1NC(=O)[C@@H]2CC[C@@H](C2)NC(=O)[C@H]([C@@H](C)c2c[nH]c3c(OC)cccc23)NC(=O)CN(C)C(=O)[C@H](Cc2ccc(C(N)=O)cc2)NC(=O)[C@H](Cc2ccc(C(N)=O)cc2)NC(=O)[C@](C)(CO)NC(=O)[C@H](Cc2c[nH]c3c(C#N)cccc23)NC(=O)[C@H](Cc2ccc(C(=O)O)cc2)NC(=O)[C@H](CC(N)=O)NC(=O)[C@H]2C[C@H](OCC(=O)O)CN2C(=O)[C@H](Cc2c[nH]c3ccccc23)NC(=O)[C@@H]2CNCCN2C(=O)[C@H](Cc2ccncc2)NC1=O [SEQ ID NO. 140] (cyclo([4Pal][Pip(4-aza)]W[dHyp](Carboxymethyl)N[Phe(4-COOH)][Trp(7-CN)][αMeS][Phe(4-CONH2)][Phe(4-CONH2)][Sar][Trp(βS-Me,7-OMe)][X1][Ahp(2)]))
- Kd [1]: 0.06 nM
- Kd [2]: 0.05 nM

SMILES: CCCC[C@@H]1NC(=O)[C@@H]2CC[C@@H](C2)NC(=O)[C@H]([C@@H](C)c2c[nH]c3c(OC)cccc23)NC(=O)CN(C)C(=O)[C@H](Cc2ccc(O)cc2)NC(=O)[C@H](Cc2ccc(C(=O)O)cc2)NC(=O)[C@](C)(CO)NC(=O)[C@H](Cc2c[nH]c3c(Cl)cccc23)NC(=O)[C@H](Cc2ccncc2)NC(=O)[C@H](CC(N)=O)NC(=O)CN(C)C(=O)[C@H](Cc2c[nH]c3ccccc23)NC(=O)[C@@H]2CNCCN2C(=O)[C@H](Cc2ccncc2)NC1=O [SEQ ID NO. 141] (cyclo([4Pal][Trp(7-Cl)][αMeS][Phe(4-COOH)]Y[Sar][Trp(βS-Me,7-OMe)][X1][Nle][4Pal][Pip(4-aza)]W[Sar]N))
- Kd [1]: 0.17 nM
- Kd [2]: 0.06 nM

SMILES: CCCC[C@@H]1NC(=O)CSC[C@@H](C(N)=O)NC(=O)[C@H]([C@@H](C)c2c[nH]c3c(OC)cccc23)NC(=O)CN(C)C(=O)[C@H](Cc2ccc(O)cc2)NC(=O)[C@H](Cc2ccc(C(=O)O)cc2)NC(=O)[C@](C)(CO)NC(=O)[C@H](Cc2c[nH]c3c(Cl)cccc23)NC(=O)[C@H](Cc2ccncc2)NC(=O)[C@H](CC(N)=O)NC(=O)[C@H](CCC(=O)O)N(C)C(=O)[C@H](Cc2c[nH]c3ncccc23)NC(=O)[C@H](CO)NC(=O)[C@H]([C@H](C)c2ccncc2)NC1=O [SEQ ID NO. 143] ({CH2CO}-[Nle][X3]S[Trp(7-aza)][NMeE]N[4Pal][Trp(7-Cl)][αMeS][Phe(4-COOH)]Y[Sar][Trp(βS-Me,7-OMe)]C-NH2; thioether N-14)
- IC50 [1]: 0.4 nM
- Kd [1]: 0.21 nM
- Kd [2]: 0.05 nM

SMILES: CCCC[C@@H]1NC(=O)[C@@H]2CC[C@@H](C2)NC(=O)[C@H]([C@@H](C)c2c[nH]c3c(OC)cccc23)NC(=O)CN(C)C(=O)[C@H](Cc2ccc(O)cc2)NC(=O)[C@H](Cc2ccc(C(N)=O)cc2)NC(=O)[C@](C)(CO)NC(=O)[C@H](Cc2c[nH]c3c(Cl)cccc23)NC(=O)[C@H](Cc2ccncc2)NC(=O)[C@H](CC(N)=O)NC(=O)[C@H]2C[C@H](N)CN2C(=O)[C@H](Cc2c[nH]c3ccccc23)NC(=O)[C@@H]2CC[C@@H](O)CN2C(=O)[C@H](Cc2ccncc2)NC1=O [SEQ ID NO. 144] (cyclo([4Pal][Trp(7-Cl)][αMeS][Phe(4-CONH2)]Y[Sar][Trp(βS-Me,7-OMe)][X1][Nle][4Pal][Pip(5R-OH)]W[dPro(4S-NH2)]N))
- Kd [1]: 0.07 nM
- Kd [2]: 0.1 nM
